According to ChEMBL document CHEMBL1201862, “PubChem BioAssay data set” (2004):
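Cells were grown in 96-well plates and exposed to each compound for 48 hours at five concentrations; endpoints were interpolated linearly between bracketing concentrations, or set to the highest concentration if not reached. GI50: concentration for 50% inhibition of growth.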 The source made the active and inactive calls. No stated cut-off is given here; in the data, active = GI50 up to about 1.1 µM and inactive = higher.

Assays:
Experiment in all cases: NCI-60 cell line screen, 48 h
OVCAR-4 = tested on: OVCAR-4
UACC-62 = tested on: UACC-62
SNB-75 = tested on: SNB-75
CCRF-CEM = tested on: CCRF-CEM
786-0 = tested on: 786-0
RXF 393 = tested on: RXF 393
OVCAR-8 = tested on: OVCAR-8
K562 = tested on: K562
HT-29 = tested on: HT-29
HL-60 = tested on: HL-60
SN12C = tested on: SN12C
NCI-H23 = tested on: NCI-H23
OVCAR-5 = tested on: OVCAR-5
SF-268 = tested on: SF-268
SF-539 = tested on: SF-539
LOX IMVI = tested on: LOX IMVI
EKVX = tested on: EKVX
MCF7 = tested on: MCF7
MDA-MB-231 = tested on: MDA-MB-231
DU-145 = tested on: DU-145

SMILES	GI50 (OVCAR-4)	GI50 (UACC-62)	GI50 (SNB-75)	GI50 (CCRF-CEM)	GI50 (786-0)	GI50 (RXF 393)	GI50 (OVCAR-8)	GI50 (K562)	GI50 (HT-29)	GI50 (HL-60)	GI50 (SN12C)	GI50 (NCI-H23)	GI50 (OVCAR-5)	GI50 (SF-268)	GI50 (SF-539)	GI50 (LOX IMVI)	GI50 (EKVX)	GI50 (MCF7)	GI50 (MDA-MB-231)	GI50 (DU-145)
Cc1cc(C)nc(NS(=O)(=O)c2ccc(Nc3c4ccccc4nc4c(C(=O)N5CCN(CCOS(C)(=O)=O)CC5)ccc(Cl)c34)cc2)n1	> 100 µM (inactive)	> 100 µM (inactive)	> 100 µM (inactive)	> 100 µM (inactive)	43.7 µM (inactive)	> 100 µM (inactive)	> 100 µM (inactive)	> 100 µM (inactive)	> 100 µM (inactive)	> 100 µM (inactive)	> 100 µM (inactive)	> 100 µM (inactive)	> 100 µM (inactive)	> 100 µM (inactive)	> 100 µM (inactive)	–	–	–	–	–
Cn1c2c([N+](=O)[O-])[se]nc2c(=O)n1-c1ccc([N+](=O)[O-])cc1	0.447 µM (active)	1.6 µM (inactive)	4.03 µM (inactive)	0.627 µM (active)	2.44 µM (inactive)	0.665 µM (active)	1.02 µM (active)	0.0664 µM (active)	2.74 µM (inactive)	0.615 µM (active)	1.71 µM (inactive)	1.98 µM (inactive)	2.12 µM (inactive)	2.21 µM (inactive)	1.88 µM (inactive)	2.61 µM (inactive)	2.38 µM (inactive)	–	–	–
N=c1c2ccccc2nc2oc3cc([N+](=O)[O-])ccc3n12	21.3 µM (inactive)	47.3 µM (inactive)	5.61 µM (inactive)	> 100 µM (inactive)	24.7 µM (inactive)	7.38 µM (inactive)	20.9 µM (inactive)	> 100 µM (inactive)	> 100 µM (inactive)	–	35.6 µM (inactive)	16.6 µM (inactive)	28.2 µM (inactive)	27.4 µM (inactive)	22.3 µM (inactive)	21 µM (inactive)	2.21 µM (inactive)	> 100 µM (inactive)	25.1 µM (inactive)	–
C[C@@]12CC[C@H]3[C@@H]4CCC(=O)N[C@@]4(C)CC[C@@H]3[C@@]1(C)CC[C@H](OC(=O)Cc1ccc(N(CCCl)CCCl)cc1)C2	18.2 µM (inactive)	15.5 µM (inactive)	18.3 µM (inactive)	11.5 µM (inactive)	–	16.5 µM (inactive)	16.7 µM (inactive)	19.5 µM (inactive)	14.7 µM (inactive)	–	14.2 µM (inactive)	15.1 µM (inactive)	17.3 µM (inactive)	15.8 µM (inactive)	17.3 µM (inactive)	13.8 µM (inactive)	16.4 µM (inactive)	11.7 µM (inactive)	–	–
CCCc1onc(CCC(=O)N(Cc2ccccc2)Cc2ccccc2)c1CC	> 100 µM (inactive)	> 100 µM (inactive)	–	> 100 µM (inactive)	> 100 µM (inactive)	–	–	> 100 µM (inactive)	> 100 µM (inactive)	> 100 µM (inactive)	> 100 µM (inactive)	> 100 µM (inactive)	> 100 µM (inactive)	> 100 µM (inactive)	–	> 100 µM (inactive)	–	–	–	–
COc1cc(CCc2ccc(OCCN(C)C)cc2)cc(OC)c1OC	> 100 µM (inactive)	> 100 µM (inactive)	45.1 µM (inactive)	> 100 µM (inactive)	> 100 µM (inactive)	41.8 µM (inactive)	> 100 µM (inactive)	39.5 µM (inactive)	34.2 µM (inactive)	33.7 µM (inactive)	> 100 µM (inactive)	–	33.8 µM (inactive)	> 100 µM (inactive)	> 100 µM (inactive)	34.8 µM (inactive)	> 100 µM (inactive)	–	–	–
C/C(=C/C(=O)N(C)c1ccccc1Cl)O[Si](C(C)C)(C(C)C)C(C)C	61.2 µM (inactive)	–	29.4 µM (inactive)	–	18.1 µM (inactive)	17.3 µM (inactive)	20.7 µM (inactive)	–	17.6 µM (inactive)	–	17 µM (inactive)	24.7 µM (inactive)	18.2 µM (inactive)	21.8 µM (inactive)	21.3 µM (inactive)	18.7 µM (inactive)	26.4 µM (inactive)	–	22.4 µM (inactive)	32.1 µM (inactive)
CCCCCCCCCCCC1CCCC(C)N1 (stereo unspecified)	61.2 µM (inactive)	36.7 µM (inactive)	65.8 µM (inactive)	23.3 µM (inactive)	–	35.8 µM (inactive)	80 µM (inactive)	19.1 µM (inactive)	20.6 µM (inactive)	10.8 µM (inactive)	53.1 µM (inactive)	61.9 µM (inactive)	80 µM (inactive)	67.9 µM (inactive)	69.8 µM (inactive)	18.2 µM (inactive)	47.3 µM (inactive)	50 µM (inactive)	–	–
